Assay results: ChEMBL document CHEMBL1201862, “PubChem BioAssay data set” (2004)
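In this assay, cells in 96-well plates receive the compound at five concentrations for 48 hours. Endpoints are linearly interpolated between the surrounding concentrations. Here, GI50 denotes the concentration required for 50% inhibition of growth.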 The source made the active and inactive calls. No stated cut-off is given here; in the data, active = GI50 up to about 1.1 µM and inactive = higher.

How the values were obtained:
Test in all cases: DTP human tumour cell line panel, 48 h
HL-60 = test system: HL-60
SF-268 = test system: SF-268
PC-3 = test system: PC-3
HT-29 = test system: HT-29
A549 = test system: A549
SNB-75 = test system: SNB-75
HOP-92 = test system: HOP-92
SF-539 = test system: SF-539
M14 = test system: M14
OVCAR-8 = test system: OVCAR-8
SK-OV-3 = test system: SK-OV-3
Malme-3M = test system: Malme-3M
K562 = test system: K562
RXF 393 = test system: RXF 393
IGROV-1 = test system: IGROV-1
T47D = test system: T47D
OVCAR-4 = test system: OVCAR-4
CAKI-1 = test system: CAKI-1
SF-295 = test system: SF-295

Measured: GI50

COc1ccc(/C=N/n2c(-c3ccccc3)n[nH]c2=O)c(OC)c1
inactive: HL-60 > 100 µM | SF-268 22.3 µM | PC-3 50.1 µM | HT-29 26.6 µM | A549 36.7 µM | SNB-75 27 µM | HOP-92 36.5 µM | SF-539 28.4 µM | M14 98.2 µM | OVCAR-8 29.9 µM | SK-OV-3 31.8 µM | Malme-3M > 100 µM | K562 > 100 µM | RXF 393 29.3 µM | IGROV-1 36.9 µM | T47D 50 µM | OVCAR-4 27 µM | CAKI-1 41.2 µM | SF-295 32.7 µM

[N-]=[N+]=Nc1ccc(NCCCCCC(=O)ON2C(=O)CCC2=O)c([N+](=O)[O-])c1
inactive: HL-60 32.5 µM | SF-268 39.3 µM | PC-3 28.5 µM | HT-29 > 100 µM | A549 78.9 µM | SNB-75 72.9 µM | HOP-92 10.3 µM | SF-539 30.5 µM | M14 58.3 µM | OVCAR-8 60.3 µM | SK-OV-3 > 100 µM | Malme-3M 27.9 µM | K562 22.4 µM | RXF 393 40.8 µM | IGROV-1 > 100 µM | T47D 62.1 µM | OVCAR-4 > 100 µM | CAKI-1 34.4 µM | SF-295 > 100 µM

CCc1[nH]nc(C(N)=O)c1/N=N/N(C)C
inactive: HL-60 9.62 µM | SF-268 47.2 µM | PC-3 > 100 µM | HT-29 > 100 µM | A549 43.5 µM | SNB-75 65.9 µM | HOP-92 36.4 µM | SF-539 78.7 µM | M14 > 100 µM | OVCAR-8 73.1 µM | SK-OV-3 91.6 µM | Malme-3M 78.3 µM | K562 1.13 µM | RXF 393 > 100 µM | IGROV-1 34.8 µM | T47D 68.4 µM | OVCAR-4 > 100 µM | CAKI-1 24.8 µM | SF-295 39.7 µM

COc1nc2c(c(=O)n1C)NC(C(O)C(O)CO)C=N2 (stereo not given)
inactive: HL-60 > 10 µM | SF-268 > 10 µM | PC-3 > 10 µM | HT-29 > 10 µM | A549 > 10 µM | SNB-75 > 10 µM | HOP-92 > 10 µM | SF-539 > 10 µM | M14 > 10 µM | OVCAR-8 > 10 µM | SK-OV-3 > 10 µM | Malme-3M > 10 µM | K562 > 10 µM | RXF 393 > 10 µM | IGROV-1 > 10 µM | T47D > 10 µM | OVCAR-4 > 10 µM | CAKI-1 > 10 µM | SF-295 > 10 µM

N[C@H](C(=O)O)[C@@H]1CC(Br)=NO1
inactive: HL-60 > 48.4 µM | SF-268 11.6 µM | PC-3 23.6 µM | HT-29 10.1 µM | A549 3.66 µM | SNB-75 16.8 µM | HOP-92 > 29.4 µM | SF-539 5.21 µM | M14 11.5 µM | OVCAR-8 > 25 µM | SK-OV-3 8.05 µM | Malme-3M > 25.1 µM | K562 20.6 µM | RXF 393 11.9 µM | IGROV-1 19 µM | T47D > 34.1 µM | OVCAR-4 21.9 µM | CAKI-1 18.4 µM | SF-295 6.28 µM

CN(C)c1ccc(/C=C(\NC(=O)c2ccccc2)C(=O)Nc2cccc(C(=O)NCCCO)c2)cc1
inactive: HL-60 > 100 µM | SF-268 > 100 µM | PC-3 > 100 µM | HT-29 > 100 µM | A549 > 100 µM | SNB-75 > 100 µM | HOP-92 > 100 µM | SF-539 > 100 µM | M14 > 100 µM | OVCAR-8 > 100 µM | SK-OV-3 > 100 µM | Malme-3M > 100 µM | K562 > 100 µM | RXF 393 > 100 µM | IGROV-1 > 100 µM | T47D > 100 µM | OVCAR-4 > 100 µM | CAKI-1 > 100 µM | SF-295 > 100 µM

COC(=O)C(/C(=N/N)C(=O)Nc1cc(Cl)c(Cl)cc1Cl)c1nc2ccc(Cl)cc2nc1O (stereo not given)
inactive: HL-60 > 100 µM | SF-268 > 100 µM | PC-3 > 100 µM | HT-29 > 100 µM | A549 > 100 µM | SNB-75 > 100 µM | HOP-92 > 100 µM | SF-539 > 100 µM | M14 > 100 µM | OVCAR-8 > 100 µM | SK-OV-3 > 100 µM | Malme-3M > 100 µM | K562 > 100 µM | RXF 393 > 100 µM | IGROV-1 45 µM | T47D > 100 µM | OVCAR-4 2.79 µM | CAKI-1 > 100 µM | SF-295 > 100 µM

C[C@]12CC[C@@H]3c4ccc(OC(=O)c5ccccc5)cc4CC[C@H]3[C@@H]1CCC2OC(=O)c1cccc2c(=O)c3ccccc3[nH]c12 (stereo not given in full)
inactive: HL-60 18.8 µM | SF-268 22.8 µM | PC-3 13.4 µM | HT-29 7.21 µM | A549 14.2 µM | SNB-75 23 µM | HOP-92 18 µM | SF-539 16.6 µM | M14 17.1 µM | OVCAR-8 18.3 µM | SK-OV-3 30.4 µM | Malme-3M 24.5 µM | K562 60 µM | RXF 393 14.4 µM | IGROV-1 16.5 µM | T47D 26.4 µM | OVCAR-4 15.6 µM | CAKI-1 27 µM | SF-295 18.2 µM

O=C1CCC2c3ccccc3NCN12 (stereo not given)
inactive: HL-60 > 100 µM | SF-268 > 100 µM | PC-3 > 100 µM | HT-29 > 100 µM | A549 > 100 µM | SNB-75 > 100 µM | HOP-92 > 100 µM | SF-539 > 100 µM | M14 > 100 µM | OVCAR-8 > 100 µM | SK-OV-3 > 100 µM | Malme-3M > 100 µM | K562 > 100 µM | RXF 393 > 100 µM | IGROV-1 > 100 µM | T47D > 100 µM | OVCAR-4 > 100 µM | CAKI-1 > 100 µM | SF-295 > 100 µM

O=C(c1ccco1)N1CCN(C(=O)c2ccco2)C1=S
inactive: HL-60 3.42 µM | SF-268 6.01 µM | PC-3 4.78 µM | HT-29 8.05 µM | A549 7.74 µM | SNB-75 10.4 µM | HOP-92 7.23 µM | SF-539 3.33 µM | M14 6.22 µM | OVCAR-8 11 µM | SK-OV-3 17.3 µM | Malme-3M 6.07 µM | K562 1.87 µM | RXF 393 2.88 µM | IGROV-1 9.64 µM | T47D 4.78 µM | OVCAR-4 17.1 µM | CAKI-1 4.72 µM | SF-295 18.5 µM
